Read-outs that look alike come from different tables or passages of the source.
Assays:
[1] = system: Porphyromonas gingivalis (ATCC 33277); assay: PDT on endodontic pathogens in planktonic phase: P. gingivalis; format: cell-based; details: methylene blue 25 μg/ml, 5 minutes; for Surviving species, PDT: red light 665 nm 30 J/cm^2
Description: (§1) The effects of PDT were investigated on endodontic pathogens in planktonic phase as well as on Enterococcus faecalis biofilms in experimentally infected root canals of extracted teeth. Strains of Porphyromonas gingivalis (ATCC 33277), P. intermedia (ATCC 25611), Fusobacterium nucleatum nucleatum (ATCC 25586), Peptostreptocococcus micros (ATCC 33270), Porphyromonas endodontalis (ATCC 35406), and E. faecalis (ATCC 29212) were sensitized with methylene blue (MB) (25 μg/ml) for 5 minutes followed by exposure to res light of 665 nm with an energy fluence of 30 J/cm^2. […] In Table 1, Surviving species are expressed as percentage-of-controls receiving neither methylene blue nor light. Each value is the mean of values obtained from 2 to 4 experiments (±standard error). The same concentration of MB in combination with red light (222 J/cm^2) was able to eliminate 97% of E. faecalis biofilm bacteria in root canals. Light was uniformly delivered at 360 degrees in the root canal system with a flexible optical fiber with cylindrical diffusers and a diameter of 500 μm. Table 1 presents the survival of endodontic bacteria after their incubation only with methylene blue (25 μg/ml) or methylene blue (25 μg/ml) and red light (30 J/cm^2): […]

E. faecalis (ATCC 29212) [2] = system: E. faecalis (ATCC 29212)
[3] = system: P. intermedia (ATCC 25611); assay: PDT on endodontic pathogens in planktonic phase: P. intermedia; format: cell-based, Prevotella intermedia; details: methylene blue 25 μg/ml, 5 minutes; for Surviving species, PDT: red light 665 nm 30 J/cm^2
Description: as §1

[4] = system: Peptostreptocococcus micros (ATCC 33270); assay: PDT on endodontic pathogens in planktonic phase: P. micros; format: cell-based; details: methylene blue 25 μg/ml, 5 minutes, mean ± standard error; for Surviving species, PDT: red light 665 nm 30 J/cm^2
Description: as §1

[5] = system: Enterococcus faecalis biofilms; assay: PDT on E. faecalis biofilms in experimentally infected root canals of extracted teeth; format: cell-based; details: MB 25 μg/ml in combination with red light 222 J/cm^2
Description: The effects of PDT were investigated on endodontic pathogens in planktonic phase as well as on Enterococcus faecalis biofilms in experimentally infected root canals of extracted teeth. Strains of Porphyromonas gingivalis (ATCC 33277), P. intermedia (ATCC 25611), Fusobacterium nucleatum nucleatum (ATCC 25586), Peptostreptocococcus micros (ATCC 33270), Porphyromonas endodontalis (ATCC 35406), and E. faecalis (ATCC 29212) were sensitized with methylene blue (MB) (25 μg/ml) for 5 minutes followed by exposure to res light of 665 nm with an energy fluence of 30 J/cm^2. […] In Table 1, Surviving species are expressed as percentage-of-controls receiving neither methylene blue nor light. Each value is the mean of values obtained from 2 to 4 experiments (±standard error). […] Light was uniformly delivered at 360 degrees in the root canal system with a flexible optical fiber with cylindrical diffusers and a diameter of 500 μm.

[6] = system: human gingival fibroblasts; assay: PDT-induced apoptosis, western blot for cleaved PARP, fibroblasts; format: cell-based; details: twenty-four hours after treatment
Description: (§2) After photodynamic therapy (PDT), cell viability and mitochondrial activity were evaluated by the neutral red and MTT assay, respectively. The assessment of PDT-induced apoptosis was investigated by western blot analysis using cleaved poly(ADPribose) polymerase-specific antibodies. […] Osteoblasts (A) and fibroblasts (B) were treated with MB only (lane MB+), light only (lane L+), or light and MB (lane L+MB+). Control cultures were left untreated (lane −) or treated with 200 μmol/L staurosporine (lane +). Twenty-four hours after treatment, cultures were stopped and analyzed by western blot using cleaved PARP− and b-actin-specific antibodies.

[7] = system: human gingival fibroblasts; assay: Cell viability, neutral red assay, fibroblasts; format: cell-based; details: 50 μg/mL MB, no light, 0 and 24 hours
Description: (§3) In this study, the viability of human gingival fibroblasts and osteoblasts in vitro was assessed after exposure to methylene blue (MB) and red light with parameters similar to those that may be applied in a clinical setting. […] Both cell types were sensitized with 50 μg/mL methylene blue followed by exposure to red light at 665 nm for 5 minutes with an irradiance of 10, 20, and 40 mW/cm^2. The power densities were 10, 20, and 40 mW/cm^2, corresponding with energy fluencies of 3, 6, and 12 J/cm^2, respectively. In previous studies, light with a power density of 100 mW/cm^2 was used for killing endodontic pathogens within infected root canal specimens in vitro. A portion of that light propagates in dentin and escapes from the tooth. The power density of light escaping from the root specimen ranges from 5 to 10 mW/cm^2 depending on the morphology of the root canal system. In the present study, up to fourfold greater power densities were used.
After photodynamic therapy (PDT), cell viability and mitochondrial activity were evaluated by the neutral red and MTT assay, respectively. The assessment of PDT-induced apoptosis was investigated by western blot analysis using cleaved poly(ADPribose) polymerase-specific antibodies. […] Twenty-four hours after treatment, cultures were stopped and analyzed by western blot using cleaved PARP− and b-actin-specific antibodies.

osteoblasts [8] = assay: PDT-induced apoptosis, western blot for cleaved PARP, osteoblasts; format: cell-based, human; details: twenty-four hours after treatment
Description: as §2

osteoblasts [9] = system: osteoblasts
Description: (§4) FIG. 7 presents two bar graphs on the growth of methylene blue (MB)-sensitized gingival fibroblasts and osteoblasts as determined by the MTT assay after their exposure to red light.
as §3, §2

[10] = system: human gingival fibroblasts; details: 24 h, 50 μg/mL
Description: as §4, §3, §2

osteoblasts [11] = details: for reduction of viability, MB alone: human, 50 μg/mL
Description: as §3, §2

[12] = system: Porphyromonas endodontalis (ATCC 35406); assay: PDT on endodontic pathogens in planktonic phase: P. endodontalis; format: cell-based; details: methylene blue 25 μg/ml, 5 minutes; for Surviving species, PDT: red light 665 nm 30 J/cm^2
Description: as §1

[13] = system: Fusobacterium nucleatum nucleatum (ATCC 25586); assay: PDT on endodontic pathogens in planktonic phase: F. nuc. nuc.; format: cell-based; details: methylene blue 25 μg/ml, 5 minutes, mean ± standard error; for Surviving species, PDT: red light 665 nm 30 J/cm^2
Description: as §1

[14] = system: multispecies root canal biofilms comprising Actinomyces israelii, Fusobacterium nucleatum subspecies nucleatum, Porphyromonas gingivalis, and Prevotella …; assay: PDT on multispecies root canal biofilms in extracted human teeth, CFU assay; format: cell-based; details: MB 25 μg/mL 10 minutes, red light 665 nm 30 J/cm^2
Description: The photodynamic effects of methylene blue (MB) on multispecies root canal biofilms comprising Actinomyces israelii, Fusobacterium nucleatum subspecies nucleatum, Porphyromonas gingivalis, and Prevotella intermedia in experimentally infected root canals of extracted human teeth were investigated in vitro.
Root canal systems were incubated with MB (25 μg/mL) for 10 minutes followed by exposure to red light at 665 nm with an energy fluence of 30 J/cm^2. Light was delivered from a diode laser via a 250-μm diameter polymethyl methacrylate optical fiber that uniformly distributed light over 360 degrees (FIG. 2). […] In FIG. 5, each bar is the mean Logic, CFU levels (+standard error).

E. faecalis (ATCC 29212) [15] = assay: PDT on endodontic pathogens in planktonic phase: E. faecalis; format: cell-based, Enterococcus faecalis
Description: as §1

CN(C)c1ccc2nc3ccc(=[N+](C)C)cc-3sc2c1 [methylene blue]
Surviving species, only methylene blue ([1]; no light, mean ± standard error): 6.7 ± 0.1 percentage-of-controls
Surviving species, PDT [1]: 0 percentage-of-controls
Surviving species, PDT ([1]; listed as MB): fully eliminated
reduction of E. faecalis viability, PDT (E. faecalis (ATCC 29212) [2]; 6.25 μg/ml MB 5 minutes, light 665 nm 60 J/cm^2): 77.5%
reduction of bacterial viability, MB alone (E. faecalis (ATCC 29212) [2]; 6.25 μg/ml MB, no light): 19.5%
Surviving species, only methylene blue ([3]; no light): 0 percentage-of-controls
Surviving species, PDT [3]: 0 percentage-of-controls
Surviving species, PDT ([3]; listed as MB): fully eliminated
Surviving species, only methylene blue ([4]; no light): 21 ± 10.6 percentage-of-controls
Surviving species, PDT [4]: 0 percentage-of-controls
Surviving species, PDT ([4]; listed as MB): fully eliminated
E. faecalis biofilm bacteria in root canals eliminated [5]: 97%
PARP cleavage, light and MB ([6]; lane L+MB+): Neither treatment resulted in PARP cleavage
PARP cleavage, MB only ([6]; lane MB+): Neither treatment resulted in PARP cleavage
effect of MB alone on viability [7]: no effect
PARP cleavage, light and MB (osteoblasts [8]; lane L+MB+): Neither treatment resulted in PARP cleavage
PARP cleavage, MB only (osteoblasts [8]; lane MB+): Neither treatment resulted in PARP cleavage
reduction of mitochondrial activity, MB alone (osteoblasts [9]; human, 0 h, 50 μg/mL): 3.1%
reduction of mitochondrial activity, L20+MB+ (osteoblasts [9]; human, 24 h, 50 μg/mL): approximately 34%
reduction of mitochondrial activity, L40+MB+ (osteoblasts [9]; human, 24 h, 50 μg/mL): approximately 34%
reduction of mitochondrial activity, MB alone (osteoblasts [9]; human, 24 h, 50 μg/mL): 13.5%
reduction of mitochondrial activity, L40+MB+ [10]: 18.5%
reduction of viability, MB alone (osteoblasts [11]; 0 h): 9.4%
reduction of viability, MB alone (osteoblasts [11]; 24 h): 14.6%
Surviving species, only methylene blue ([12]; no light): 0 percentage-of-controls
Surviving species, PDT [12]: 0 percentage-of-controls
Surviving species, PDT ([12]; listed as MB): fully eliminated
Surviving species, only methylene blue ([13]; no light): 5.5 ± 0.4 percentage-of-controls
Surviving species, PDT [13]: 0 percentage-of-controls
Surviving species, PDT ([13]; listed as MB): fully eliminated
reduction of colony-forming unit counts (CFU), PDT [14]: up to 80%
mean CFU levels, combination of light and MB versus control or MB alone ([14]; FIG. 5): significantly lower than either control or MB alone
Surviving species, only methylene blue (E. faecalis (ATCC 29212) [15]; methylene blue 25 μg/ml, 5 minutes, no light, mean ± standard error): 94.5 ± 17.6 percentage-of-controls
Surviving species, PDT (E. faecalis (ATCC 29212) [15]; methylene blue 25 μg/ml, 5 minutes, red light 665 nm 30 J/cm^2, mean ± standard error): 47 ± 12.1 percentage-of-controls
killing (E. faecalis (ATCC 29212) [15]; planktonic, MB 25 μg/ml 5 minutes, light 665 nm 30 J/cm^2): 53%

OCl [sodium hypochlorite]
effect of sodium hypochlorite on osteoblasts, MTT assay (osteoblasts [9]): completely eliminated cells
effect of sodium hypochlorite on osteoblasts, neutral red assay (osteoblasts [11]): completely eliminated cells
